Results on one compound are retold here after patent US20160362433A1, “ETHER COMPOUNDS FOR TREATMENT OF COMPLEMENT MEDIATED DISORDERS” (Achillion Pharmaceuticals, Inc., priority 2014, published 2016).

This experiment deals with T1, Human factor D (Homo sapiens, UniProt P00746).
T1 construct: Human factor D (purified from human serum, Complement Technology, Inc.); purchased Complement Technology, Inc; host or cells: human serum
Description: Human Factor D Assay. Format: biochemical. The conditions noted are these: Human factor D 80 nM, substrate Z-L-Lys-SBzl, DTNB. On the procedure: The assay of Example 8 was used to determine the IC50's of the compounds. Other standard factor D inhibition assays are also available.
Human factor D (purified from human serum, Complement Technology, Inc.) at 80 nM final concentration is incubated with test compound at various concentrations for 5 minutes at room temperature in 50 mM Tris, 1M NaCl, pH 7.5. A synthetic substrate Z-L-Lys-SBzl and DTNB (Ellman's reagent) are added to final concentrations of 100 μM each. The increase in color is recorded at OD405 nm in a microplate in kinetic mode over 30 minutes with 30 second time points in a spectrofluorimeter. IC50 values are calculated by non-linear regression from the percentage of inhibition of complement factor D activity as a function of test compound concentration.

T1 sequence (P00746 26-253): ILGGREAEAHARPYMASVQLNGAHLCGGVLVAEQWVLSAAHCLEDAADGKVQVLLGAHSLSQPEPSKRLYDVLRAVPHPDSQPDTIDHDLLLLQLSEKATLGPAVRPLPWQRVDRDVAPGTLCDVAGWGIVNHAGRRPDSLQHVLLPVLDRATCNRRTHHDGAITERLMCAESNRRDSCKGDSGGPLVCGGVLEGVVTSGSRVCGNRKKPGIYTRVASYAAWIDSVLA

As to `CC(=O)c1cn(CC(=O)N2C[C@H](F)C[C@H]2C(=O)NCc2cccc(Cl)c2F)c2cc(OCc3cc4ccc3CCc3ccc(cc3)CC4)ccc12` [Compound 6, (2S,4R)-1-(2-(3-acetyl-6-((tricyclo[8.2.2.2^4,7]hexadeca-4,6,10,12,13,15-hexaen-5-ylmethyl)oxy)-1H-indol-1-yl)acetyl)-N-(3-chloro-2-fluorobenzyl)-4-fluoropyrrolidine-2-carboxamide], the IC50 lay within 1 to 10 µM.

One may read the IC50 as the concentration at which inhibition is half-maximal. Low readings indicate greater potency in that assay, high ones weaker potency in that assay.
